Calls of active or inactive are those of the source. The calls are words filed in the database; no cut-off is given here.
Columns and labels:
MCF7 [1] = test: Anticancer activity against human MCF7 cells assessed as smaller cells incubated at 0.098uM for 72 hrs by phase contrast inverted microscopic analysis; format: functional, cell-based
MCF7 [2] = test: Anticancer activity against human MCF7 cells assessed as round cells incubated at 0.098uM for 72 hrs by phase contrast inverted microscopic analysis; format: functional, cell-based
MCF7 [3] = test: Induction of apoptosis in human MCF7 cells assessed as early apoptotic cells incubated at 0.098 uM for 72 hrs by annexin V-FITC based propidium iodide dual staining assay (reference value: 0.06%); format: functional
HeLa [4] = test: Induction of apoptosis in human HeLa cells assessed as late apoptotic cells incubated at 0.098 uM for 72 hrs by annexin V-FITC based propidium iodide dual staining assay (reference value: 0%); format: functional
HepG2 [5] = test: Induction of apoptosis in human HepG2 cells assessed as viable cells incubated at 0.098 uM for 72 hrs by annexin V-FITC based propidium iodide dual staining assay (reference value: 97.27%); format: functional; settings: read-out: Activity
MCF7 [6] = test: Induction of apoptosis in human MCF7 cells assessed as late apoptotic cells by measuring orange to red patch incubated at 0.098 uM for 72 hrs by acridine orange-ethidium bromide dual staining based fluorescence microscopic analysis; format: functional, cell-based
HeLa [7] = test: Induction of oxidative stress in human HeLa cells assessed as cell death by measuring redox alteration fluorescence incubated at 0.11 uM for 72 hrs in presence of dihydro dichlorofluorescein diacetate by DCFH-DA based flow cytometric analysis relative to control; format: functional
HepG2 [8] = test: Induction of oxidative stress in human HepG2 cells assessed as cell death by measuring redox alteration fluorescence incubated at 0.097 uM for 72 hrs in presence of dihydro dichlorofluorescein diacetate by DCFH-DA based flow cytometric analysis relative to control; format: functional
MCF7 [9] = test: Induction of oxidative stress in human MCF7 cells assessed as cell death by measuring redox alteration fluorescence incubated at 0.017 uM for 72 hrs in presence of dihydro dichlorofluorescein diacetate by DCFH-DA based flow cytometric analysis relative to control; format: functional
HeLa [10] = test: Induction of apoptosis in human HeLa cells assessed as necrotic cells incubated at 0.097 uM for 72 hrs by annexin V-FITC based propidium iodide dual staining assay (reference value: 0%); format: functional
MCF7 [11] = test: Induction of oxidative stress in human MCF7 cells assessed as cell death by measuring redox alteration fluorescence incubated at 0.11 uM for 72 hrs in presence of dihydro dichlorofluorescein diacetate by DCFH-DA based flow cytometric analysis relative to control; format: functional
Caco-2 [12] = test: Induction of apoptosis in human Caco-2 cells assessed as caspase3/7 activation at 0.097 uM using caspase-glo 3/7 as substrate relative to control; format: functional
MCF7 [13] = test: Induction of apoptosis in human MCF7 cells assessed as caspase3/7 activation at 0.097 uM using caspase-glo 3/7 as substrate relative to control; format: functional
MCF7 [14] = test: Anticancer activity against human MCF7 cells assessed as smaller cells incubated at 0.11 uM for 72 hrs by phase contrast inverted microscopic analysis; format: functional, cell-based
MCF7 [15] = test: Anticancer activity against human MCF7 cells assessed as losing contact with neighbouring cells incubated at 0.11 uM for 72 hrs by phase contrast inverted microscopic analysis; format: functional, cell-based
HeLa [16] = test: Induction of apoptosis in human HeLa cells assessed as viable cells incubated at 0.11 uM for 72 hrs by annexin V-FITC based propidium iodide dual staining assay (reference value: 97.23%); format: functional; settings: read-out: Activity
HeLa [17] = test: Induction of apoptosis in human HeLa cells assessed as necrotic cells incubated at 0.11 uM for 72 hrs by annexin V-FITC based propidium iodide dual staining assay (reference value: 0%); format: functional
Caco-2 [18] = test: Induction of apoptosis in human Caco-2 cells assessed as total apoptotic cells incubated at 0.11 uM for 72 hrs by annexin V-FITC based propidium iodide dual staining assay (reference value: 0.04 +/- 0.005%); format: functional
MCF7 [19] = test: Induction of apoptosis in human MCF7 cells assessed as late apoptotic cells by measuring orange to red patch incubated at 0.11 uM for 72 hrs by acridine orange-ethidium bromide dual staining based fluorescence microscopic analysis; format: functional, cell-based
dsDNA = test: Induction of damage in dsDNA (unknown origin) assessed as instantaneous DNA disruption by measuring decrease in fluorescence intensity at 100 uM incubated upto 160 mins by EvaGreen based fluorescence plate reader analysis; format: nucleic-acid assay
Calf thymus DNA = test: Induction of calf thymus DNA damage assessed as disrupted by DNA by measuring decrease in fluorescence intensity at 200 uM by EvaGreen based fluorescence plate reader analysis; format: nucleic-acid assay; settings: Bos taurus
Caco-2 [20] = test: Induction of apoptosis in human Caco-2 cells assessed as viable cells incubated at 0.017 uM for 72 hrs by annexin V-FITC based propidium iodide dual staining assay (reference value: 99.89%); format: functional; settings: read-out: Activity
HepG2 [21] = test: Induction of apoptosis in human HepG2 cells assessed as viable cells incubated at 0.017 uM for 72 hrs by annexin V-FITC based propidium iodide dual staining assay (reference value: 97.27%); format: functional; settings: read-out: Activity
HepG2 [22] = test: Induction of apoptosis in human HepG2 cells assessed as necrotic cells incubated at 0.017 uM for 72 hrs by annexin V-FITC based propidium iodide dual staining assay (reference value: 0.33%); format: functional
Caco-2 [23] = test: Induction of apoptosis in human Caco-2 cells assessed as total apoptotic cells incubated at 0.017 uM for 72 hrs by annexin V-FITC based propidium iodide dual staining assay (reference value: 0.04 +/- 0.005%); format: functional
HepG2 [24] = test: Induction of apoptosis in human HepG2 cells assessed as total apoptotic cells incubated at 0.017 uM for 72 hrs by annexin V-FITC based propidium iodide dual staining assay (reference value: 0.99 +/- 0.02%); format: functional
HeLa [25] = test: Induction of apoptosis in human HeLa cells assessed as viable cells by measuring green uniform patch incubated at 0.017 uM for 72 hrs by acridine orange-ethidium bromide dual staining based fluorescence microscopic analysis; format: functional, cell-based
HeLa [26] = test: Induction of apoptosis in human HeLa cells assessed as caspase3/7 activation at 0.017 uM using caspase-glo 3/7 as substrate relative to control; format: functional

SMILES: O=C(CN1C(=O)CN(/N=C/c2ccc([N+](=O)[O-])o2)C1=O)c1ccc(Cl)cc1
- Activity (MCF7 [1]): Active
- Activity (MCF7 [2]): Active
- Activity (MCF7 [3]): 4.77%
- Activity (HeLa [4]): 62.92%
- viability at 0.098 µM (HepG2 [5]): 55%
- Activity (MCF7 [6]): Active
- Activity (HeLa [7]): 32.41%
- Activity (HepG2 [8]): 38.99%
- Activity (MCF7 [9]): 34.7%

SMILES: NS(=O)(=O)c1ccc(-n2cc(CN3C(=O)CN(/N=C/c4ccc([N+](=O)[O-])o4)C3=O)nn2)cc1
- Activity (HeLa [10]): 4.26%
- Activity (MCF7 [11]): 51.08%
- Activity (Caco-2 [12]): 58%
- Activity (MCF7 [13]): 58%

SMILES: C#CCN1C(=O)CN(/N=C/c2ccc([N+](=O)[O-])o2)C1=O
- Activity (MCF7 [14]): Active
- Activity (MCF7 [15]): Active
- viability at 0.11 µM (HeLa [16]): 66.4%
- Activity (HeLa [17]): 2.48%
- Activity (Caco-2 [18]): 45.81%
- Activity (MCF7 [19]): Active
- Activity (dsDNA): Active
- Activity (Calf thymus DNA): Active

SMILES: O=c1[nH]cc(F)c(=O)[nH]1 [FLUOROURACIL]
- viability at 0.017 µM (Caco-2 [20]): 89.7%
- viability at 0.017 µM (HepG2 [21]): 88.4%
- Activity (HepG2 [22]): 1.56%
- Activity (Caco-2 [23]): 3.68%
- Activity (HepG2 [24]): 3.9%
- Activity (HeLa [25]): Active
- Activity (HeLa [26]): 12%
